Experimental data taken from the NIST ThermoML archive (doi:10.1016/j.fluid.2008.03.004).

Experiment: xn = mol fraction of the nth substance listed
Details: 101 kPa, Liquid; for speed of sound: Sing-around technique in a fixed-path interferometer

CCOC(C)(C)C [2-ethoxy-2-methylpropane] + Cc1cccc(C)c1
Details	mass density [kg/m3]	speed of sound [m/s]
305.65 K, x1 = 0.05	847.026	–
305.65 K, x1 = 0.099	840.74	–
305.65 K, x1 = 0.2	828.116	–
305.65 K, x1 = 0.3	815.278	–
305.65 K, x1 = 0.4	802.699	–
305.65 K, x1 = 0.497	790.26	–
305.65 K, x1 = 0.598	777.566	–
305.65 K, x1 = 0.698	765.236	–
305.65 K, x1 = 0.8	752.76	–
305.65 K, x1 = 0.898	740.246	–
305.65 K, x1 = 0.95	733.801	–
305.65 K, x1 = 1	727.038	–
308.15 K, x1 = 0.05	844.847	1261.4
308.15 K, x1 = 0.099	838.542	1248.3
308.15 K, x1 = 0.2	825.874	1219
308.15 K, x1 = 0.3	812.993	1189.3
308.15 K, x1 = 0.4	800.369	1159.9
308.15 K, x1 = 0.497	787.887	1131
308.15 K, x1 = 0.598	775.147	1101.7
308.15 K, x1 = 0.698	762.77	1074.5
308.15 K, x1 = 0.8	750.245	1045.6
308.15 K, x1 = 0.898	737.68	1018.8
308.15 K, x1 = 0.95	731.212	1004.3
308.15 K, x1 = 1	724.443	986.39
310.65 K, x1 = 0.05	842.667	1251.2
310.65 K, x1 = 0.099	836.338	1238
310.65 K, x1 = 0.2	823.629	1208.6
310.65 K, x1 = 0.3	810.701	1178.8
310.65 K, x1 = 0.4	798.033	1149.3
310.65 K, x1 = 0.497	785.51	1120.3
310.65 K, x1 = 0.598	772.72	1091
310.65 K, x1 = 0.698	760.296	1063.7
310.65 K, x1 = 0.8	747.726	1034.7
310.65 K, x1 = 0.898	735.108	1007.8
310.65 K, x1 = 0.95	728.609	993.27
310.65 K, x1 = 1	721.826	975.42
313.15 K, x1 = 0.05	840.482	1241
313.15 K, x1 = 0.099	834.132	1227.8
313.15 K, x1 = 0.2	821.379	1198.3
313.15 K, x1 = 0.3	808.405	1168.3
313.15 K, x1 = 0.4	795.695	1138.9
313.15 K, x1 = 0.497	783.123	1109.8
313.15 K, x1 = 0.598	770.288	1080.4
313.15 K, x1 = 0.698	757.817	1053
313.15 K, x1 = 0.8	745.2	1024
313.15 K, x1 = 0.898	732.523	996.88
313.15 K, x1 = 0.95	726.007	982.39
313.15 K, x1 = 1	719.179	964.53
315.65 K, x1 = 0.05	838.29	1230.9
315.65 K, x1 = 0.099	831.922	1217.6
315.65 K, x1 = 0.2	819.125	1188
315.65 K, x1 = 0.3	806.105	1157.9
315.65 K, x1 = 0.4	793.351	1128.5
315.65 K, x1 = 0.497	780.733	1099.2
315.65 K, x1 = 0.598	767.848	1069.7
315.65 K, x1 = 0.698	755.328	1042.3
315.65 K, x1 = 0.8	742.656	1013.2
315.65 K, x1 = 0.898	729.931	985.99
315.65 K, x1 = 0.95	723.382	971.39
315.65 K, x1 = 1	716.527	953.54
318.15 K, x1 = 0.05	836.094	1220.7
318.15 K, x1 = 0.099	829.704	1207.4
318.15 K, x1 = 0.2	816.865	1177.8
318.15 K, x1 = 0.3	803.8	1147.6
318.15 K, x1 = 0.4	790.999	1118
318.15 K, x1 = 0.497	778.333	1088.7
318.15 K, x1 = 0.598	765.399	1059.2
318.15 K, x1 = 0.698	752.842	1031.8
318.15 K, x1 = 0.8	740.101	1002.4
318.15 K, x1 = 0.898	727.323	975.1
318.15 K, x1 = 0.95	720.743	960.42
318.15 K, x1 = 1	713.96	942.67
320.65 K, x1 = 0.05	833.892	1210.6
320.65 K, x1 = 0.099	827.484	1197.3
320.65 K, x1 = 0.2	814.602	1167.6
320.65 K, x1 = 0.3	801.489	1137.3
320.65 K, x1 = 0.4	788.639	1107.6
320.65 K, x1 = 0.497	775.926	1078.3
320.65 K, x1 = 0.598	762.944	1048.6
320.65 K, x1 = 0.698	750.335	1021.1
320.65 K, x1 = 0.8	737.539	991.66
320.65 K, x1 = 0.898	724.705	964.24
320.65 K, x1 = 0.95	718.093	949.5
320.65 K, x1 = 1	711.25	931.73
323.15 K, x1 = 0.05	831.689	1200.6
323.15 K, x1 = 0.099	825.258	1187.2
323.15 K, x1 = 0.2	812.331	1157.4
323.15 K, x1 = 0.3	799.17	1127
323.15 K, x1 = 0.4	786.273	1097.3
323.15 K, x1 = 0.497	773.51	1067.8
323.15 K, x1 = 0.598	760.487	1038.2
323.15 K, x1 = 0.698	747.817	1010.4
323.15 K, x1 = 0.8	734.964	980.96
323.15 K, x1 = 0.898	722.075	953.5
323.15 K, x1 = 0.95	715.433	938.66
323.15 K, x1 = 1	708.642	920.73
